Columns and labels:
[1] = target: hCOX-1 (cyclooxygenase-1) (Homo sapiens, UniProt P23219); assay: [[…]-14C]-arachidonic acid metabolism in intact OVCAR-3 cells; format: cell-based
[2] = target: T1, oCOX-1 (ovine cyclooxygenase-1) (Ovis aries, UniProt P05979); assay: [[…]-14C]-arachidonic acid TLC COX activity assay with purified enzyme; format: biochemical
T1 sequence (P05979 25-600): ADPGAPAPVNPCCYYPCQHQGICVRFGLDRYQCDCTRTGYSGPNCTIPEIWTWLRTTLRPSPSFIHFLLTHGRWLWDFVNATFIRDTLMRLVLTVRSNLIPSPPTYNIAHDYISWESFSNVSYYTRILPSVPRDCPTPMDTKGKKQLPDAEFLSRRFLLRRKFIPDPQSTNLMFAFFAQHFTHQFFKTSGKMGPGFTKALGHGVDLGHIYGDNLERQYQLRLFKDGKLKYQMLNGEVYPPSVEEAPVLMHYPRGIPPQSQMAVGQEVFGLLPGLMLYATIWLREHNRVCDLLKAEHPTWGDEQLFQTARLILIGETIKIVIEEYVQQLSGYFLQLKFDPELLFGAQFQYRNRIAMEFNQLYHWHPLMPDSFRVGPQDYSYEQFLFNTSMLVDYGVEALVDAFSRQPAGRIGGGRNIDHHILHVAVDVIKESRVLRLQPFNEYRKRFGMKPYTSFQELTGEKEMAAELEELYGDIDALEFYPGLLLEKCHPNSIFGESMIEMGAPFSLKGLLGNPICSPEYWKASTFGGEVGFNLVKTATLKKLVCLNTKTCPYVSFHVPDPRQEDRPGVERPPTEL

Sequence of hCOX-1 (cyclooxygenase-1) (P23219 24-599): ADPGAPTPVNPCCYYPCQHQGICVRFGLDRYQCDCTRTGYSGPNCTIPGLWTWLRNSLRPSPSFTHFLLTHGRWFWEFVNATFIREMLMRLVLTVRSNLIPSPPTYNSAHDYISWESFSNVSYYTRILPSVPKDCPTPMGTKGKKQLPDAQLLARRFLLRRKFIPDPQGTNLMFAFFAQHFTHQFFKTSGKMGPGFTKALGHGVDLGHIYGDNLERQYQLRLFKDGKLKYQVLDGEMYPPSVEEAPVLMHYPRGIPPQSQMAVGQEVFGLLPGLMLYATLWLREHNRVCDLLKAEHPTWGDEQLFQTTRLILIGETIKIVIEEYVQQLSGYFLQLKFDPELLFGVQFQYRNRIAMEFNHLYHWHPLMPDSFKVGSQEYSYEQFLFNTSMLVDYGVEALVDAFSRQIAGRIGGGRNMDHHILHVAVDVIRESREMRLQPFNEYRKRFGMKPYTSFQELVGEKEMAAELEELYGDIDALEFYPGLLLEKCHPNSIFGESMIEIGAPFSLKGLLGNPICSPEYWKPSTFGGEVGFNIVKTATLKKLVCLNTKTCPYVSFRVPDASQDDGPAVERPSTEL

**Q.** Which IC50 [1] does the source give for `FCc1onc(-c2ccc(Cl)o2)c1-c1ccccc1` [[19F]-P6, 3-(5-chlorofuran-2-yl)-5-(fluoromethyl)-4-phenylisoxazole] here?
**A.** 1370 nM

**Q.** And the IC50 [2]?
**A.** 2000 nM
